In one series the test system is A549 cell. Briefly: Cytotoxicity test (SRB method) for A549 cells. To be noted: for ED50(mg/mL) for A549: Table 2; for cytotoxicity compared with DPT: A549, in words. The series is classed as cell-based, human. From the text:
(§1) Human lung carcinomas A549 and […] were used for determining cytotoxicity of the compounds of the present invention according to the Sulfrhodamine-B (SRB) method which was developed by NCI in 1989 in order to determine in vitro anticancer activity of drugs.
(§2) Cells to be used in the experiment were separated from a surface using 0.5% Trypsin-EDTA solution and suspended in a density of 5×10^4 cell/ml therein. The cell suspension was introduced into a 96-well plate in an amount of 180/well and incubated for 24 hours in a 5% CO2 incubator of 37° C. Samples were dissolved in dimethylsulfoxide and then diluted by water distilled in advance for three times just before the experiment. Forty-one (41) samples were prepared into 4 types of final concentrations, i.e., 0.1, 0.03, 0.01 and 0.003 mg per ml of the medium. The diluted sample solutions were added to the 96-well plate in the amount of 20 μl/well and incubated for 48 hours in a CO2 incubator of 37° C. At the time of adding the samples, Tz (Time zero) plate was taken. The medium was removed from the Tz plate and each of the plates after incubation were completed. Ten (10)% […] (TCA) was added in the amount of […], and allowed to stand for 1 hour at 4° C. to fix the cells on the bottom surface of the plate. After the cells were fixed, the plate was washed five to six times with water to completely remove the remaining TCA solution and then dried at room temperature to completely remove the moisture. To the fully dried plate was introduced a dye solution in the amount of […] in which 0.4% SRB was dissolved in 1% acetic acid solution. […] After the dyeing process, the plate was dried again at room temperature. 100 ml of 10 mM Tris solution was added thereto in order to dissolve the dye, and then O.D. (optical density) was determined by microplate reader at 520 nm.
(§3) ED50 values for cancer cells were calculated as follows. The amount of SRB protein was analyzed at the time when incubation started by the addition of the sample. This amount was named time zero (Tz). The O.D. value obtained from a group which was not treated by the sample was named Control group (C) and the O.D. value obtained from a group which was treated by the sample was named Test group (T).
(§4) The degree of cytotoxicity of the compounds was calculated from Tz, C and T values according to the following equation.
(§5) That is, in the case of Tz≧T, the degree was calculated by
(§6) (T−Tz)/(C−Tz)×100(%), and
(§7) • in the case of Tz<T, the degree was calculated by […].
(§8) From the values thus obtained, ED50 value which is defined as the concentration at which growth of the cancer cell is inhibited by 50% was calculated using the regression function of Excel program.
A general note: In SRB staining, fixed cells bind dye roughly in proportion to their protein.

A further series has as its system SK-MEL-2 cell. Description: Cytotoxicity test (SRB method) for SK-MEL-2 cells. The series is classed as cell-based, human. To be noted: SK-MEL-2, SRB, 48 hours incubation.
From the text: as §1, §2, §3, §4, §5, §6, §7, §8

Setting [1] is: A549 human lung cancer cell, SRB, 48 hours incubation, read-out: ED50(nM) for A549.
The mark [2] stands for this setting: A549, SRB, Table 2, unit printed in the cell, read-out: ED50 for A549, cells marked.

Read-outs that look alike come from different tables or passages of the source.

On to `CCCCC/C=C\C/C=C\C/C=C\C/C=C\CCCC(=O)Oc1c(OC)cc(C2c3cc4c(cc3CC3COC(=O)C32)OCO4)cc1OC` (stereo not drawn) [Compound 1c-28, 4′-demethyl-4′-O-(cis-5′,8′,11′,14′-eicosatetraenoyl)-1-deoxypodophyllotoxin], for which the “ED50(mg/mL) for A549” value in the series on A549 cell (A549, SRB, 48 hours incubation) stood at 0.910 mg/mL. Moreover, in the series on SK-MEL-2 cell, the “ED50(mg/mL) for SK-MEL-2” value worked out at 0.184 mg/mL.

With `CCCCCCCCCCCC(=O)Oc1c(OC)cc(C2c3cc4c(cc3CC3COC(=O)C32)OCO4)cc1OC` (stereo not drawn) [Compound 1c-11, 4′-demethyl-4′-O-dodecanoyl-1-deoxypodophyllotoxin], the “ED50(mg/mL) for A549” value in the series on A549 cell (A549, SRB, 48 hours incubation) turned out to be 0.030 mg/mL. The “ED50(mg/mL) for SK-MEL-2” value with SK-MEL-2 cell is reported as 0.025 mg/mL.

As for `COc1cc(C2c3cc4c(cc3CC3COC(=O)C32)OCO4)cc(OC)c1OC(=O)CN` (stereo not drawn) [Compound 1a-4, 4′-demethyl-4′-O-glycinoyl-1-deoxypodophyllotoxin], the EC50 in the series with A549 cell (setting [1]) worked out at 102 nM.

On to `CCCCCCCCCC(=O)Oc1c(OC)cc(C2c3cc4c(cc3CC3COC(=O)C32)OCO4)cc1OC` (stereo not drawn) [Compound 1c-9, 4′-demethyl-4′-O-decanoyl-1-deoxypodophyllotoxin], for which the “ED50(mg/mL) for A549” value in the series with A549 cell (A549, SRB, 48 hours incubation) turned out to be 0.027 mg/mL. Moreover, the “ED50(mg/mL) for SK-MEL-2” value with SK-MEL-2 cell was found to be 0.004 mg/mL.

In the case of `CCCCCCCC(=O)Oc1c(OC)cc(C2c3cc4c(cc3CC3COC(=O)C32)OCO4)cc1OC` (stereo not drawn) [Compound 1c-8, 4′-demethyl-4′-O-octanoyl-1-deoxypodophyllotoxin], in the series on A549 cell (A549, SRB, 48 hours incubation), the “ED50(mg/mL) for A549” value is on record as 0.009 mg/mL. Also, the “ED50(mg/mL) for SK-MEL-2” value in the series on SK-MEL-2 cell worked out at 0.030 mg/mL.

With `CCCCCCCC/C=C\CCCCCCCCCCCC(=O)Oc1c(OC)cc(C2c3cc4c(cc3CC3COC(=O)C32)OCO4)cc1OC` (stereo not drawn) [Compound 1c-30, 4′-demethyl-4′-O-(cis-13′-docosenoyl)-1-deoxypodophyllotoxin], the “ED50(mg/mL) for A549” value with A549 cell (A549, SRB, 48 hours incubation) turned out to be 2.710 mg/mL. The “ED50(mg/mL) for SK-MEL-2” value in the series with SK-MEL-2 cell was found to be 0.561 mg/mL.

As to `COc1cc(C2c3cc4c(cc3CC3COC(=O)C32)OCO4)cc(OC)c1OC(=O)CCCCCCCCCCCCCCC(=O)O` (stereo not drawn) [Compound 1c-38, 4′-demethyl-4′-O-(15′-carboxy-pentadecanoyl)-1-deoxypodophyllotoxin], the “ED50(mg/mL) for A549” value in the series with A549 cell (A549, SRB, 48 hours incubation) is listed as 0.106 mg/mL. For the same compound, the “ED50(mg/mL) for SK-MEL-2” value in the series with SK-MEL-2 cell is on record as 0.027 mg/mL.

In the case of `COc1cc(C2c3cc4c(cc3CC3COC(=O)C32)OCO4)cc(OC)c1OC(=O)NS(=O)(=O)c1ccccc1` (stereo not drawn) [Compound 1b-16, 4′-demethyl-4′-O-benzenesulfonylcarbamoyl-1-deoxypodophyllo-toxin], the “cytotoxicity compared with DPT” value in the series on A549 cell is “stronger cytotoxicity than DPT”. In addition, the EC50 in the series with A549 cell (setting [1]) was found to be 50.6 nM.

In the case of `COc1cc(C2c3cc4c(cc3CC3COC(=O)C32)OCO4)cc(OC)c1OC(=O)Nc1ccc(C)cc1` (stereo not drawn) [Compound 1b-11, 4′-demethyl-4′-O-(4-methylphenylcarbamoyl)-1-deoxypodophyllotoxin], the EC50 with A549 cell (setting [1]) worked out at 99.3 nM.

Consider `COc1cc(C2c3cc4c(cc3CC3COC(=O)C32)OCO4)cc(OC)c1OC(=O)CCCCC(=O)O` (stereo not drawn) [Compound 1c-33, 4′-demethyl-4′-O-(5′-carboxy-pentanoyl)-1-deoxypodophyllotoxin], for which the “ED50(mg/mL) for A549” value in the series with A549 cell (A549, SRB, 48 hours incubation) is reported as 0.258 mg/mL. Also, in the series on SK-MEL-2 cell, the “ED50(mg/mL) for SK-MEL-2” value is 0.062 mg/mL.

For the compound `CCCCCCCC/C=C\CCCCCCCCCC(=O)Oc1c(OC)cc(C2c3cc4c(cc3CC3COC(=O)C32)OCO4)cc1OC` (stereo not drawn) [Compound 1c-25, 4′-demethyl-4′-O-(cis-11′-eicosenoyl)-1-deoxypodophyllotoxin], the “ED50(mg/mL) for A549” value in the series on A549 cell (A549, SRB, 48 hours incubation) was greater than 5 mg/mL. Also, the “ED50(mg/mL) for SK-MEL-2” value in the series on SK-MEL-2 cell is greater than 5 mg/mL.

Consider `COc1cc(C2c3cc4c(cc3CC3COC(=O)C32)OCO4)cc(OC)c1OC(=O)Nc1ccc(SC)cc1` (stereo not drawn) [Compound 1b-12, 4′-demethyl-4′-O-(4-methylthiophenylcarbamoyl)-1-deoxypodophyllotoxin], for which, in the series on A549 cell (setting [1]), the EC50 stood at 106 nM.

In the case of `CCNC(=O)Oc1c(OC)cc(C2c3cc4c(cc3CC3COC(=O)C32)OCO4)cc1OC` (stereo not drawn) [Compound 1b-1, 4′-demethyl-4′-O-ethylcarbamoyl-1-deoxypodophyllotoxin], the EC50 in the series on A549 cell (setting [1]) came out at 132 nM.

As to `C=CCNC(=O)Oc1c(OC)cc(C2c3cc4c(cc3CC3COC(=O)C32)OCO4)cc1OC` (stereo not drawn) [Compound 1b-7, 4′-demethyl-4′-O-allylcarbamoyl-1-deoxypodophyllotoxin], the EC50 in the series on A549 cell (setting [1]) is 90.5 nM.

Regarding `COc1cc(C2c3cc4c(cc3CC3COC(=O)C32)OCO4)cc(OC)c1OC(=O)Cc1ccc(N)cc1` (stereo not drawn) [Compound 1a-16, 4′-demethyl-4′-O-(4-aminophenylacetyl)-1-deoxypodophyllotoxin], the EC50 with A549 cell (setting [1]) turned out to be 114 nM.

On to `COc1cc(C2c3cc4c(cc3CC3COC(=O)C32)OCO4)cc(OC)c1OC(=O)Nc1ccc(F)cc1` (stereo not drawn) [Compound 1b-9, 4′-demethyl-4′-O-(4-fluorophenylcarbamoyl)-1-deoxypodophyllo-toxin], for which, in the series with A549 cell (setting [1]), the EC50 was 86.3 nM.

On to `COc1ccccc1NC(=O)Oc1c(OC)cc(C2c3cc4c(cc3CC3COC(=O)C32)OCO4)cc1OC` (stereo not drawn) [Compound 1b-13, 4′-demethyl-4′-O-(2-methoxyphenylcarbamoyl)-1-deoxypodophyllotoxin], for which, in the series with A549 cell, the “cytotoxicity compared with DPT” value is recorded as “stronger cytotoxicity than DPT”. Further, in the series with A549 cell (setting [1]), the EC50 amounted to 66.2 nM.

For `COc1cc(C2c3cc4c(cc3CC3COC(=O)C32)OCO4)cc(OC)c1OC(=O)Nc1ccccc1` (stereo not drawn) [Compound 1b-8, 4′-demethyl-4′-O-phenylcarbamoyl-1-deoxypodophyllotoxin], the EC50 with A549 cell (setting [1]) is 177 nM.

Turning to `COc1cc(C2c3cc4c(cc3CC3COC(=O)C32)OCO4)cc(OC)c1OC(=O)NCc1ccccc1` (stereo not drawn) [Compound 1b-14, 4′-demethyl-4′-O-benzylcarbamoyl-1-deoxypodophyllotoxin], in the series on A549 cell, the “cytotoxicity compared with DPT” value is listed as “stronger cytotoxicity than DPT”. Further, the EC50 in the series with A549 cell (setting [1]) came to 72 nM.

For the compound `COc1cc(C2c3cc4c(cc3CC3COC(=O)C32)OCO4)cc(OC)c1OC(=O)[C@H](C)N` (stereo partly drawn) [Compound 1a-1, 4′-demethyl-4′-O-alanoyl-1-deoxypodophyllotoxin], the “cytotoxicity compared with DPT” value with A549 cell was “stronger cytotoxicity than DPT”. Also, the EC50 with A549 cell (setting [1]) came to 21.9 nM.

For the compound `COc1cc(C=CC(=O)Oc2c(OC)cc(C3c4cc5c(cc4CC4COC(=O)C43)OCO5)cc2OC)cc(OC)c1OC` (stereo not drawn) [Compound 1c-1, 4′-demethyl-4′-O-(3,4,5-trimethoxyphenylcinnamoyl)-1-deoxypodophyllotoxin], in the series with A549 cell (setting [2]), the EC50 is 108 nM.

For the compound `COc1ccc(NC(=O)Oc2c(OC)cc(C3c4cc5c(cc4CC4COC(=O)C43)OCO5)cc2OC)cc1` (stereo not drawn) [Compound 1b-10, 4′-demethyl-4′-O-(4-methoxyphenylcarbamoyl)-1-deoxypodophyllotoxin], the EC50 in the series on A549 cell (setting [1]) worked out at 95.6 nM.

Regarding `COc1cc(C2c3cc4c(cc3CC3COC(=O)C32)OCO4)cc(OC)c1OC(=O)C(N)CO` (stereo not drawn) [Compound 1a-5, 4′-demethyl-4′-O-serinoyl-1-deoxypodophyllotoxin], the “cytotoxicity compared with DPT” value in the series with A549 cell is reported as “stronger cytotoxicity than DPT”. Besides, in the series on A549 cell (setting [1]), the EC50 amounted to 55 nM.

As to `COc1cc(C2c3cc4c(cc3CC3COC(=O)C32)OCO4)cc(OC)c1OC(=O)Cc1ccc(N(C)C)cc1` (stereo not drawn) [Compound 1c-2, 4′-demethyl-4′-O-(4-dimethylaminophenylacetyl)-1-deoxypodophyllotoxin], the EC50 with A549 cell (setting [2]) worked out at 106 nM.

For the compound `COc1cc(C2c3cc4c(cc3CC3COC(=O)C32)OCO4)cc(OC)c1OC(=O)C(N)C(C)C` (stereo not drawn) [Compound 1a-3, 4′-demethyl-4′-O-valinoyl-1-deoxypodophyllotoxin], the EC50 in the series with A549 cell (setting [1]) was 88.2 nM.

`COc1cc(C2c3cc4c(cc3CC3COC(=O)C32)OCO4)cc(OC)c1OC(=O)C(N)Cc1ccccc1` (stereo not drawn) [Compound 1a-7, 4′-demethyl-4′-O-phenylalanoyl-1-deoxypodophyllotoxin]: in the series on A549 cell (setting [1]), the EC50 came to 86.6 nM.

With `COc1cc(C2c3cc4c(cc3CC3COC(=O)C32)OCO4)cc(OC)c1OC(=O)[C@@H](N)Cc1ccc(O)cc1` (stereo partly drawn) [Compound 1a-9, 4′-demethyl-4′-O-tyrosinoyl-1-deoxypodophyllotoxin], the EC50 with A549 cell (setting [1]) was 104 nM.

Turning to `COc1cc(C2c3cc4c(cc3CC3COC(=O)C32)OCO4)cc(OC)c1OC(=O)NC(=O)c1ccccc1` (stereo not drawn) [Compound 1b-15, 4′-demethyl-4′-O-benzoylcarbamoyl-1-deoxypodophyllotoxin], the EC50 in the series with A549 cell (setting [1]) is 77 nM.

In the case of `COc1cc(C2c3cc4c(cc3CC3COC(=O)C32)OCO4)cc(OC)c1OC(=O)NC(=O)CCl` (stereo not drawn) [Compound 1b-6, 4′-demethyl-4′-O-chloroacetylcarbamoyl-1-deoxypodophyllotoxin], in the series on A549 cell (setting [1]), the EC50 worked out at 80.3 nM.
